The record followed here is patent US20240182445A1 (ONO PHARMACEUTICAL CO., LTD., priority 2019, published 2024).

For the first assay, the target named is T1, human TREK-1 (Homo sapiens, UniProt O95069).
T1 construct: expressed in transfected cells
T1 sequence (O95069 1-426): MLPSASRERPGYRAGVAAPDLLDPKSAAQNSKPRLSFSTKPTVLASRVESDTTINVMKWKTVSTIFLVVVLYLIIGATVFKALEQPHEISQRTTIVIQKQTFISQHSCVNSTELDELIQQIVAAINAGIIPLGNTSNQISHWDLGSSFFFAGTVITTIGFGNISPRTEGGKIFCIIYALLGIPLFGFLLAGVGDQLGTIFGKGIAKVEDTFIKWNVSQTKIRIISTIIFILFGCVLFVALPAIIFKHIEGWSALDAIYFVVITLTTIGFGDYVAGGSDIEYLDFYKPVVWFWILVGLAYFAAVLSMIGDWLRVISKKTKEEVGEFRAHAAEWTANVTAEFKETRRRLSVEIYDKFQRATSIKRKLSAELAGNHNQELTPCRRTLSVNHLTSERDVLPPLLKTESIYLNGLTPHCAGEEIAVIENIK
In words: TREK-1 Thallium (Tl+) flux assay, Method 1. It counts as cell-based. As to conditions: TREK-1 Thallium (Tl+) flux assay, Method 1. The essentials:
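Readout: Thallos fluorescence ratio, taken 25 s post-thallium relative to the pre-thallium baseline average, then converted to % inhibition. Cells were CHO-K1 stably expressing human TREK-1, dye-loaded and exposed to test compound (vehicle 0.3% DMSO) for 10 min prior to thallium stimulation.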
The term IC50 denotes the concentration needed to halve the response being measured. A lower IC50 goes with greater potency. Compound `Cc1ccc(-n2cc(-c3cnc(NC(=O)c4c(Cl)cnn4C4CCN(C(=O)OC(C)(C)C)CC4)c(C)c3)cn2)cc1` [Compound 409, tert-butyl 4-(4-chloro-5-((3-methyl-5-(1-(p-tolyl)-1H-pyrazol-4-yl)pyridin-2-yl)carbamoyl)-1H-pyrazol-1-yl)piperidine-1-carboxylate] showed an IC50 of 2770 nM.
Same read-out and setting: then `Cc1cc(OCc2ccccc2)ccc1NC(=O)c1c(Cl)cnn1C1CCN(C(=O)OC(C)(C)C)CC1` [Compound 430, tert-butyl 4-(5-((4-(benzyloxy)-2-methylphenyl)carbamoyl)-4-chloro-1H-pyrazol-1-yl)piperidine-1-carboxylate], with 6350 nM.
Still for that read-out and setting: then `CCC(=O)N1CCC(n2ncc(Cl)c2C(=O)Nc2ccc(OCc3ccccc3)cc2C)CC1` [Compound 397, N-(4-(benzyloxy)-2-methylphenyl)-4-chloro-1-(1-propionylpiperidin-4-yl)-1H-pyrazole-5-carboxamide], with 1680 nM.

Still in this assay, the particulars now being: TREK-1 Thallium (Tl+) flux assay; no *^12 (Method 2) mark on these rows.
With `Cc1cc(C#Cc2ccccc2)cnc1NC(=O)c1c(Cl)cnn1[C@H]1C[C@@H](NC(=O)C(C)C)C1` [Compound 207, 4-chloro-1-(cis-3-isobutyramidocyclobutyl)-N-(3-methyl-5-(phenylethynyl)pyridin-2-yl)-1H-pyrazole-5-carboxamide], the IC50 stood at 310 nM. That is a sub-micromolar value.
Same read-out and setting: the result for `Cc1cc(C#Cc2ccccc2)cnc1NC(=O)c1c(Cl)cnn1C1CN(C(=O)OC(C)(C)C)C1` [Compound 287, tert-butyl 3-(4-chloro-5-((3-methyl-5-(phenylethynyl)pyridin-2-yl)carbamoyl)-1H-pyrazol-1-yl)azetidine-1-carboxylate] reads 500 nM; that for “4-chloro-1-[(2s,4r)-6-(cyclopropanecarbonyl)-6-azaspiro[3.4]octan-2-yl]-N-{5-[(4-fluorophenyl)ethynyl]-3-methylpyridin-2-yl}-1H-pyrazole-5-carboxamide or 4-chloro-1-[(2r,4s)-6-(cyclopropanecarbonyl)-6-azaspiro[3.4]octan-2-yl]-N-{5-[(4-fluorophenyl)ethynyl]-3-methylpyridin-2-yl}-1H-pyrazole-5-carboxamide [Compound 362]”, 910 nM.
`Cc1cc(C#Cc2ccccc2)cnc1NC(=O)c1c(Cl)cnn1CC1(C#N)CC1` [Compound 267, 4-chloro-1-((1-cyanocyclopropyl)methyl)-N-(3-methyl-5-(phenylethynyl)pyridin-2-yl)-1H-pyrazole-5-carboxamide] had an IC50 of 450 nM. This IC50 is about 2-fold lower than that of the compound before.
Still for that read-out and setting: the result for `O=C(Nc1ncc(C#Cc2ccc(F)cc2)cc1F)c1c(Cl)cnn1CC1CCOCC1` [Compound 233, 4-chloro-N-(3-fluoro-5-((4-fluorophenyl)ethynyl)pyridin-2-yl)-1-((tetrahydro-2H-pyran-4-yl)methyl)-1H-pyrazole-5-carboxamide] reads 360 nM.
`CC(=O)N1CCC(C(C)n2ncc(Cl)c2C(=O)Nc2ncc(C#Cc3ccccc3)cc2C)CC1` (single isomer, unassigned) [Compound 197, 1-[(1R)-1-(1-acetylpiperidin-4-yl)ethyl]-4-chloro-N-[3-methyl-5-(phenylethynyl)pyridin-2-yl]-1H-pyrazole-5-carboxamide or 1-[(1S)-1-(1-acetylpiperidin-4-yl)ethyl]-4-chloro-N-[3-methyl-5-(phenylethynyl)pyridin-2-yl]-1H-pyrazole-5-carboxamide] yielded an IC50 of 300 nM.
Consider `Cc1cc(C#Cc2ccccc2)cnc1NC(=O)c1c(Cl)cnn1C1CCOCC1` [Compound 210, 4-chloro-N-(3-methyl-5-(phenylethynyl)pyridin-2-yl)-1-(tetrahydro-2H-pyran-4-yl)-1H-pyrazole-5-carboxamide], for which the midpoint of inhibition, the IC50, lay at 320 nM. The IC50 values of the last two compounds are within 1.5-fold of each other.
Same read-out and setting: the result for `CC(=O)N1CCC(Cn2ncc(Cl)c2C(=O)Nc2ncc(C#Cc3ccccc3F)cc2C)CC1` [Compound 356, 1-((1-acetylpiperidin-4-yl)methyl)-4-chloro-N-(5-((2-fluorophenyl)ethynyl)-3-methylpyridin-2-yl)-1H-pyrazole-5-carboxamide] reads 860 nM.
Same read-out and setting: then `Cc1cc(-c2cnn(-c3ccc(F)cc3)c2)cnc1NC(=O)c1c(Cl)cnn1C[C@H]1CCOC1` [Compound 387, (R)-4-chloro-N-(5-(1-(4-fluorophenyl)-1H-pyrazol-4-yl)-3-methylpyridin-2-yl)-1-((tetrahydrofuran-3-yl)methyl)-1H-pyrazole-5-carboxamide], with 900 nM.
The same measure, in the same setting: then `Cc1cc(OCc2ccccc2)ccc1NC(=O)c1c(Cl)cnn1C1CCN(C(=O)C2COCCO2)CC1` (stereo not shown) [Compound 391, 1-(1-(1,4-dioxane-2-carbonyl)piperidin-4-yl)-N-(4-(benzyloxy)-2-methylphenyl)-4-chloro-1H-pyrazole-5-carboxamide], with 1250 nM.
Take `CC(=O)N1CCC(Cn2ncc(Cl)c2C(=O)Nc2ncc(C#Cc3ccc(F)cc3)cc2C)C(C)C1` (stereo not shown) [Compound 244, 1-((1-acetyl-3-methylpiperidin-4-yl)methyl)-4-chloro-N-(5-((4-fluorophenyl)ethynyl)-3-methylpyridin-2-yl)-1H-pyrazole-5-carboxamide]: inhibition was half-maximal at 380 nM (IC50).
`Cc1ncc(Cn2ncc(Cl)c2C(=O)Nc2ncc(C#Cc3ccccc3)cc2C)s1` [Compound 374, 4-chloro-N-(3-methyl-5-(phenylethynyl)pyridin-2-yl)-1-((2-methylthiazol-5-yl)methyl)-1H-pyrazole-5-carboxamide]: the IC50 turned out to be 1130 nM.
On the same count and under the same terms, the result for `Cc1cc(C#Cc2ccccc2)cnc1NC(=O)c1c(Cl)cnn1CC1CC(C)OC(C)C1` (stereo not shown) [Compound 340, 4-chloro-1-((2,6-dimethyltetrahydro-2H-pyran-4-yl)methyl)-N-(3-methyl-5-(phenylethynyl)pyridin-2-yl)-1H-pyrazole-5-carboxamide] reads 740 nM; that for `CC(C)(C)OC(=O)N1CC[C@@H](n2ncc(Cl)c2C(=O)Nc2ncc(C#Cc3ccccc3)cc2F)[C@H](F)C1` [Compound 337, tert-butyl (3R,4R)-4-(4-chloro-5-((3-fluoro-5-(phenylethynyl)pyridin-2-yl)carbamoyl)-1H-pyrazol-1-yl)-3-fluoropiperidine-1-carboxylate], 720 nM.

Still in this assay, the particulars now being: TREK-1 Thallium (Tl+) flux assay; values without footnote *12 are Method 1.
As for `CC(=O)N1CCC(n2ncc(Cl)c2C(=O)Nc2ncc(C#Cc3cccc(F)c3)cc2F)CC1` [Compound 25, 1-(1-acetylpiperidin-4-yl)-4-chloro-N-(3-fluoro-5-((3-fluorophenyl)ethynyl)pyridin-2-yl)-1H-pyrazole-5-carboxamide], it took 90 nM to reach half-maximal inhibition (IC50). In other words, the double-digit nanomolar range.
With `CC(=O)N1CCC(n2ncc(Cl)c2C(=O)Nc2c(C)cc(C#Cc3ccccc3)cc2F)CC1` [Compound 37, 1-(1-acetylpiperidin-4-yl)-4-chloro-N-(2-fluoro-6-methyl-4-(phenylethynyl)phenyl)-1H-pyrazole-5-carboxamide], 120 nM corresponded to half-maximal inhibition (IC50).
The same measure, in the same setting: then `CC(C)(C)OC(=O)N1C[C@H]2C[C@H](n3ncc(Cl)c3C(=O)Nc3ncc(C#Cc4ccccc4)cc3F)C[C@H]2C1` [Compound 170, tert-butyl (3aR,5s,6aS)-5-(4-chloro-5-{[3-fluoro-5-(phenylethynyl)pyridin-2-yl]carbamoyl}-1H-pyrazol-1-yl)hexahydrocyclopenta[c]pyrrole-2(1H)-carboxylate], with 270 nM.
`CC(=O)N1CC[C@@H](Cn2ncc(Cl)c2C(=O)Nc2ncc(C#Cc3ccccc3)cc2F)[C@H](F)C1` [Compound 178, 1-(((3S,4S)-1-acetyl-3-fluoropiperidin-4-yl)methyl)-4-chloro-N-(3-fluoro-5-(phenylethynyl)pyridin-2-yl)-1H-pyrazole-5-carboxamide] registered an IC50 of 270 nM. This lies in the sub-micromolar range.
Still for that read-out and setting: then `CC(=O)N1CC[C@@H](n2ncc(Cl)c2C(=O)Nc2ncc(C#Cc3ccccc3)cc2C)C[C@@H]1C` (single isomer, unassigned) [Compound 86, 1-[(2S,4R)-1-acetyl-2-methylpiperidin-4-yl]-4-chloro-N-[3-methyl-5-(phenylethynyl)pyridin-2-yl]-1H-pyrazole-5-carboxamide or 1-[(2R,4S)-1-acetyl-2-methylpiperidin-4-yl]-4-chloro-N-[3-methyl-5-(phenylethynyl)pyridin-2-yl]-1H-pyrazole-5-carboxamide], with 170 nM.
The same measure, in the same setting: then `CC(=O)N1CC2(CC(n3ncc(Cl)c3C(=O)Nc3ncc(C#Cc4ccccc4)cc3F)C2)C1` [Compound 113, 1-(2-acetyl-2-azaspiro[3.3]heptan-6-yl)-4-chloro-N-(3-fluoro-5-(phenylethynyl)pyridin-2-yl)-1H-pyrazole-5-carboxamide], with 200 nM.

Still in this assay, the particulars now being: read-out: Tl^+ Assay % inhibition at 30 uM (Minus value indicates activation of TREK-1); at 30 uM; CHO-K1 cells stably expressing human TREK-1; minus = activation.
Usually inhibition stands for the relative decrease from the control value, in per cent. For the compound `Cc1cc(C#Cc2ccccc2)cnc1NC(=O)c1nn(CC2CCOCC2)cc1Cl` [Compound 444, 4-chloro-N-(3-methyl-5-(phenylethynyl)pyridin-2-yl)-1-((tetrahydro-2H-pyran-4-yl)methyl)-1H-pyrazole-3-carboxamide], the inhibition at 30 µM was -116%.
Take `Cc1cc(C#Cc2ccc(F)cc2)cnc1NC(=O)c1nn(CCC2CCN(C(=O)C3CC3)CC2)cc1Cl` [Compound 451, 4-chloro-1-(2-(1-(cyclopropanecarbonyl)piperidin-4-yl)ethyl)-N-(5-((4-fluorophenyl)ethynyl)-3-methylpyridin-2-yl)-1H-pyrazole-3-carboxamide]: the inhibition at 30 µM was -79%.
